According to patent US10441550B2, “Nanofibrous materials as drug, protein, or genetic release vehicles” (BioSurfaces, Inc., priority 2005, dated 2019):

Experiments:
[1] = organism not given; cited from earlier work
[2] = test system: Candida albicans; test: Turbidity assay (broth macrodilution, NCCLS M27-A); format: cell-based; settings: 40 micrograms Diflucan in solution; activity decreases as inoculum increases
Protocol: Candida albicans was purchased from ATCC.
A broth macrodilution assay was performed based on the NCCLS M27-A protocol. The stock fungal inoculum concentration was determined via backplating a set volume of the diluted fungus broth onto Trypticase Soy Agar plates. The number of colony forming units (cfu) grown per plate was then counted and extrapolated to determine the starting Candida concentration.
The stock fungus solution was then diluted to 10^6, 10^5 and 10^4 cfu/ml. After incubating the individual test segments in 2 ml of the fungus solutions for 24 hours at 30° C., the optical density of the broth solutions was measured at 492 nm.

SMILES	MIC50 [1] [micrograms per ml]	antifungal activity [2]
O=C(O)c1cn(C2CC2)c2cc(N3CCNCC3)c(F)cc2c1=O [Cipro, Ciprofloxacin]	0.26	
OC(Cn1cncn1)(Cn1cncn1)c1ccc(F)cc1F [Diflucan, Fluconazole]		excellent antifungal activity
